In the assay the test system is BDF1 mice, B16 melanoma ip, median survival T/C. As to the kind of experiment: NCI In Vivo Anticancer Drug Screen. Data for tumor model B16 Melanoma (intraperitoneal) in B6D2F1 (BDF1) mice. The settings on record: endpoint: median survival time, higher = longer survival. In a few lines:
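Vehicle-treated animals serve as the reference (C); treated animals (T) are scored for survival or tumor size after tumor transplantation.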

Where [1] appears, read: dose: 100.0 mg/kg/injection, schedule: Q01DX009 (ip), vehicle: Klucel (hydroxypropylcellulose) (HPC).
Where [2] appears, read: dose: 200.0 mg/kg/injection, schedule: Q01DX009 (ip), vehicle: Klucel (hydroxypropylcellulose) (HPC).
Setting [3] is: dose: 400.0 mg/kg/injection, schedule: Q01DX009 (ip), vehicle: Klucel (hydroxypropylcellulose) (HPC).
Setting [4] is: dose: 100.0 mg/kg/injection, schedule: Q01DX009 (ip), vehicle: saline with Tween-80.
Where [5] appears, read: dose: 3.12 mg/kg/injection, schedule: Q01DX009 (ip), vehicle: saline with Tween-80.
[6] abbreviates: dose: 6.25 mg/kg/injection, schedule: Q01DX009 (ip), vehicle: saline with Tween-80.
Setting [7] is: dose: 12.5 mg/kg/injection, schedule: Q01DX009 (ip), vehicle: saline with Tween-80.
Setting [8] is: dose: 12.5 mg/kg/injection, schedule: Q01DX009 (ip), vehicle: Klucel (hydroxypropylcellulose) (HPC).
Where [9] appears, read: dose: 25.0 mg/kg/injection, schedule: Q01DX009 (ip), vehicle: Klucel (hydroxypropylcellulose) (HPC).
Setting [10] is: dose: 50.0 mg/kg/injection, schedule: Q01DX009 (ip), vehicle: saline.
The mark [11] stands for this setting: dose: 100.0 mg/kg/injection, schedule: Q01DX009 (ip), vehicle: saline.
Setting [12] is: dose: 200.0 mg/kg/injection, schedule: Q01DX009 (ip), vehicle: saline.
[13] abbreviates: dose: 50.0 mg/kg/injection, schedule: Q01DX009 (ip), vehicle: Klucel (hydroxypropylcellulose) (HPC).
The mark [14] stands for this setting: dose: 3.13 mg/kg/injection, schedule: Q01DX009 (ip), vehicle: saline with Tween-80.
The mark [15] stands for this setting: dose: 25.0 mg/kg/injection, schedule: Q01DX009 (ip), vehicle: saline with Tween-80.
Setting [16] is: dose: 50.0 mg/kg/injection, schedule: Q01DX009 (ip), vehicle: saline with Tween-80.

“And” between values parts separate entries of the source, which are not always exact repeats. Equal values may be shown once. Toxic doses and inconclusive results are not listed.

For the molecule `CCOP(=O)(N1CC1(C)C)N1CC1(C)C` (stereo unspecified), the T/C is, setting by setting: (dose: 5.0 mg/kg/injection, schedule: Q01DX009 (ip), vehicle: saline) 109 % of control; (dose: 10.0 mg/kg/injection, schedule: Q01DX009 (ip), vehicle: saline) 104 % of control; (dose: 20.0 mg/kg/injection, schedule: Q01DX009 (ip), vehicle: saline) 109 % of control; (dose: 30.0 mg/kg/injection, schedule: Q01DX009 (ip), vehicle: saline) 118 % of control.

`Cc1ccc(C)c(NC(=O)Nc2ccccc2)c1`: the T/C under setting [1] is 96 % of control, the T/C under setting [2] is 110 % of control and the T/C under setting [3] is 96 % of control.

As to `Clc1nnc(Cl)c(Cl)c1Cl`, the T/C is 109 % of control (dose: 0.05 mg/kg/injection, schedule: Q01DX009 (ip), vehicle: saline with Tween-80); 102 % of control (dose: 0.05 mg/kg/injection, schedule: Q04DX003 (ip), vehicle: saline); 100 % of control (dose: 0.1 mg/kg/injection, schedule: Q01DX009 (ip), vehicle: saline with Tween-80); 91 % of control (dose: 0.1 mg/kg/injection, schedule: Q04DX003 (ip), vehicle: saline); 100 % of control (dose: 0.2 mg/kg/injection, schedule: Q01DX009 (ip), vehicle: saline with Tween-80); 89 % of control (dose: 0.2 mg/kg/injection, schedule: Q04DX003 (ip), vehicle: saline).

As to `COc1cc2c[n+](C)c3c(c2cc1OC)Cc1cc2c(cc1-3)OCO2`, the T/C under setting [4] is 120 % of control.

For `CCOC(=O)C(=Cc1ccccc1Cl)C(=O)OCC`, the T/C is 99 % of control (dose: 50.0 mg/kg/injection, schedule: Q04DX003 (ip), vehicle: Klucel (hydroxypropylcellulose) (HPC)); 107 % of control (dose: 100.0 mg/kg/injection, schedule: Q04DX003 (ip), vehicle: Klucel (hydroxypropylcellulose) (HPC)); 95 % of control (dose: 200.0 mg/kg/injection, schedule: Q04DX003 (ip), vehicle: Klucel (hydroxypropylcellulose) (HPC)).

For `COc1ccc(/C=C(\C)[N+](=O)[O-])cc1OC`, the T/C reads like this: (dose: 12.5 mg/kg/injection, schedule: Q01DX009 (ip), vehicle: other) 88 % of control; (dose: 25.0 mg/kg/injection, schedule: Q01DX009 (ip), vehicle: other) 93 % of control.

Consider `CCC(=O)c1ccc2c(c1)N(CCCN(C)C)c1ccccc1S2`, for which the T/C was 96 % of control under setting [5], 86 % of control under setting [6] and 96 % of control under setting [7].

With `O=c1oc2c3ccccc3c3ccccc3c2o1`, the T/C is 100 % of control (dose: 1.56 mg/kg/injection, schedule: Q01DX009 (ip), vehicle: Klucel (hydroxypropylcellulose) (HPC)); 96 % of control (dose: 3.12 mg/kg/injection, schedule: Q01DX009 (ip), vehicle: Klucel (hydroxypropylcellulose) (HPC)); 113 % of control (dose: 6.25 mg/kg/injection, schedule: Q01DX009 (ip), vehicle: Klucel (hydroxypropylcellulose) (HPC)); 106 % of control under setting [8]; 86 % of control and 96 % of control under setting [9].

Take `NCC(=O)NC(CCCN=C(N)N)C(=O)O` (stereo unspecified): the T/C is, setting by setting: under setting [10], 103 % of control; under setting [11], 98 % of control; under setting [12], 92 % of control.

Regarding `CN(C)c1n[nH]c(N)n1`, the T/C is 91 % of control (dose: 12.5 mg/kg/injection, schedule: Q01DX009 (ip), vehicle: saline); 102 % of control (dose: 25.0 mg/kg/injection, schedule: Q01DX009 (ip), vehicle: saline); 95 % of control under setting [10]; 96 % of control under setting [11]; 102 % of control under setting [12]; 104 % of control (dose: 400.0 mg/kg/injection, schedule: Q01DX009 (ip), vehicle: saline).

Regarding `COc1cccc2c1C(=O)c1c(O)c3c(c(O)c1C2=O)C[C@@](O)(C(=O)CO)C[C@@H]3OC1CC(N2CCOCC2C#N)C(O)C(C)O1` (stereo partly specified), the T/C (dose: 37.5 micrograms/kg/injection, schedule: Q01DX001 (ip), vehicle: water) is 161 % of control.

Regarding `Nc1nc(-c2ccccc2N=NN2CCCC2)nc2ccccc12`, the T/C runs as follows: under setting [9], 95 % of control; under setting [13], 94 % of control.

On to `CC(=O)N(C(C)=O)c1ccc(N=Nc2ccccc2C)cc1C`, for which the T/C was 94 % of control under setting [8]; 117 % of control under setting [9]; 100 % of control under setting [13]; 100 % of control under setting [1]; 87 % of control under setting [2].

Take `C1=Cc2ccccc2/C1=C/c1cccc(/C=C2\C=Cc3ccccc32)c1`: the T/C was 100 % of control under setting [6] and 86 % of control under setting [7].

On to `COC(=O)CCC1=C(C)c2cc3[n-]c(cc4nc(cc5[n-]c(cc1n2)c(CCC(=O)OC)c5C)C=C4C)cc3C.[Ni+2]`, for which the T/C is, setting by setting: (dose: 1.56 mg/kg/injection, schedule: Q01DX009 (ip), vehicle: saline with Tween-80) 91 % of control; under setting [14], 88 % of control; under setting [6], 86 % of control.

Turning to `N=Cc1c(O)[nH]c(=O)[nH]c1=O`, the T/C is 87 % of control (dose: 150.0 mg/kg/injection, schedule: Q01DX009 (ip), vehicle: Klucel (hydroxypropylcellulose) (HPC)) and 95 % of control (dose: 300.0 mg/kg/injection, schedule: Q01DX009 (ip), vehicle: Klucel (hydroxypropylcellulose) (HPC)).

`CCC[CH2][Sn-]([CH2]CCC)([CH2]CCC)[O]c1cc(Cl)c(Cl)cc1Cl`: the T/C by setting is: (dose: 0.25 mg/kg/injection, schedule: Q01DX009 (ip), vehicle: Klucel (hydroxypropylcellulose) (HPC)) 95 % of control; (dose: 0.5 mg/kg/injection, schedule: Q01DX009 (ip), vehicle: Klucel (hydroxypropylcellulose) (HPC)) 94 % of control; (dose: 1.0 mg/kg/injection, schedule: Q01DX009 (ip), vehicle: Klucel (hydroxypropylcellulose) (HPC)) 96 % of control.

As to `C=C1CCN(c2ccc(C)cc2)C1=O`, the T/C (dose: 4.0 mg/kg/injection, schedule: Q01DX009 (ip), vehicle: saline + alcohol) is 91 % of control; the T/C (dose: 8.0 mg/kg/injection, schedule: Q01DX009 (ip), vehicle: saline + alcohol) is 88 % of control; the T/C (dose: 16.0 mg/kg/injection, schedule: Q01DX009 (ip), vehicle: saline + alcohol) was 94 % of control; the T/C (dose: 32.0 mg/kg/injection, schedule: Q01DX009 (ip), vehicle: saline + alcohol) is 89 % of control; the T/C (dose: 64.0 mg/kg/injection, schedule: Q01DX009 (ip), vehicle: saline + alcohol) was 104 % of control.

Consider `COC1=CC(=O)C(OC)=C(OC)C1=O`, for which the T/C reads like this: under setting [5], 98 % of control; under setting [6], 98 % of control; under setting [7], 100 % of control; under setting [15], 101 % of control; under setting [16], 93 % of control.

Take `CCCC[N+](CCCC)(CCCC)CCCC.Cc1ccc([SH2+])c([SH2+])c1.Cc1ccc([SH2+])c([SH2+])c1.[Fe+3]`: the T/C is, setting by setting: under setting [9], 93 % of control; under setting [15], 97 % of control; under setting [13], 99 % of control; under setting [16], 98 % of control; under setting [1], 93 % of control; under setting [4], 103 % of control. The T/C was 93 % of control under setting [2] and 98 % of control (dose: 200.0 mg/kg/injection, schedule: Q01DX009 (ip), vehicle: saline with Tween-80).

As for `COC(=O)[C@@H]1[C@@H](O)[C@H](OC(=O)c2cc(OC)c(OC)c(OC)c2)C[C@@H]2CN3CCc4c([nH]c5ccccc45)[C@H]3C[C@@H]21`, the T/C runs as follows: (dose: 1.5 mg/kg/injection, schedule: Q01DX009 (ip), vehicle: Klucel (hydroxypropylcellulose) (HPC)) 107 % of control; (dose: 3.0 mg/kg/injection, schedule: Q01DX009 (ip), vehicle: Klucel (hydroxypropylcellulose) (HPC)) 98 % of control; (dose: 6.0 mg/kg/injection, schedule: Q01DX009 (ip), vehicle: Klucel (hydroxypropylcellulose) (HPC)) 97 % of control.

`COc1ccc(C(=O)Nc2ccccc2)cc1[N+](=O)[O-]`: the T/C was 89 % of control under setting [1], 100 % of control under setting [2] and 94 % of control under setting [3].

As for `CC(=O)OCC1OC([Se][As](C)C)C(OC(C)=O)C(OC(C)=O)C1OC(C)=O` (stereo unspecified), the T/C runs as follows: under setting [14], 88 % of control; under setting [6], 100 % of control; under setting [7], 90 % of control.

The record behind these values is PubChem BioAssay AID192 (DTP/NCI, 2004).
